Reference: patent publication US4179464A, “Preparation of N-(phosphonoacetyl)-L-aspartic acid” (priority 1978, dated 1979)
“Also recorded” adds a separate entry of the source. Counter-ions that a name gives are not always drawn. Like-named read-outs stand apart in the source and are kept apart here. Blank lines part the entries; values can stand above or below the compound they belong to.

Tests used:
solubility = assay type: physicochemical
Description: (§1) The following determinations were made as to the physical properties of the disodium PALA. Except for the test for stability, these tests were carried out on material free of solvent contamination.

hygroscopic character = assay type: physicochemical; settings: for physical state after moisture uptake: atmospheric moisture, eventually
Description: as §1
Hygroscopic Character. Tetrasodium PALA absorbs atmospheric moisture 1.5 times faster than the disodium salt.

P388 tumor = settings: NCI screening program, data through Aug. 31, 1976; cited from earlier work
[1] = test system: aspartate transcarbamylase; settings: Stark et al., J. Biol. Chem., 246, 6599 (1971); cited from earlier work
[2] = test system: pyrimidine nucleotide biosynthesis; settings: Stark et al. (1974); cited from earlier work
B16 tumor = settings: NCI screening program, data through Aug. 31, 1976; cited from earlier work
Lewis Lung tumor = settings: NCI screening program, data through Aug. 31, 1976; cited from earlier work
tumor systems = experiment: preliminary in vivo screening of PALA esters; settings: relative to tetrasodium PALA
[3] = stability on drying in vacuo at 140° (NMR, TLC); assay type: physicochemical; settings: dried in vacuo at 140° for 15.5 hours, sample containing acetic acid and ethanol
Description: as §1
Stability. A sample of disodium PALA was dried in vacuo at 140° for 15.5 hours. […] This is believed to be an ester produced at the elevated temperature in the presence of ethanol and acetic acid.

[4] = assay type: physicochemical
Description: as §1
pH. A 2% solution of the disodium salt in water has a pH of 4.08.

expected tumor systems = experiment: activity of tetrasodium PALA samples in tumor systems; assay type: in vivo
Description: In spite of the above mentioned problems involving the consistency of elemental analyses and the low hydrogen values, the tetrasodium PALA samples were characterized as highly pure materials by nmr, optical rotation (comparison with literature value), and thin layer chromatography (homogeneous in four different solvent systems).

water solubility (in words) (solubility): insoluble in water
hygroscopicity (in words) (hygroscopic character; listed as dibenzyl PALA): hygroscopic
SMILES: O=C(CP(=O)(O)O)N[C@@H](CC(=O)OCc1ccccc1)C(=O)OCc1ccccc1 [IV, L-Aspartic acid, N-(phosphonoacetyl)-, dibenzyl ester]

SMILES: O=C(O)C[C@H](NC(=O)CP(=O)(O)O)C(=O)O [N,N'-dibenzylethylenediamine salt]
solubility in ethanol (solubility; ethanol, preliminary): soluble in ethanol

SMILES: O=C(O)C[C@H](NC(=O)CP(=O)(O)O)C(=O)O [PALA, N-(phosphonoacetyl)-L-aspartic acid]
activity against P388 tumor system (P388 tumor): active
transition state analogue inhibitor of aspartate transcarbamylase [1]: transition state analogue inhibitor of aspartate transcarbamylase
inhibition of pyrimidine nucleotide biosynthesis in vitro [2]: inhibition of pyrimidine nucleotide biosynthesis in vitro
water solubility (in words) (solubility; water): high water solubility
activity against B16 tumor system (B16 tumor): active
activity against Lewis Lung tumor system (Lewis Lung tumor): active

hygroscopicity (in words) (hygroscopic character): apparently less hygroscopic than (X)
SMILES: O=C(CP(=O)(O)O)N[C@@H](CC(=O)OCc1ccccc1)C(=O)OCc1ccccc1 [XI, L-Aspartic acid, N-(phosphonoacetyl)-, dibenzyl ester, complexed with cyclohexylamine]
fold less active than tetrasodium PALA (tumor systems): approximately 100 fold

hygroscopicity (in words) (hygroscopic character): markedly hygroscopic
SMILES: O=C(CP(=O)(O)O)N[C@@H](CC(=O)OCc1ccccc1)C(=O)OCc1ccccc1 [X]
fold less active than tetrasodium PALA (tumor systems): approximately 100 fold

SMILES: O=C(O)C[C@H](NC(=O)CP(=O)(O)O)C(=O)O [calcium salt of PALA]
water solubility (in words) (solubility; water): dissolves in water permitting ready formulation
rate of dissolution in water (solubility; water, results tentative): dissolves relatively slowly

SMILES: O=C(O)C[C@H](NC(=O)CP(=O)(O)O)C(=O)O [cyclohexylamine salt]
hygroscopicity (in words) (hygroscopic character): completely nonhygroscopic

SMILES: O=C([O-])C[C@H](NC(=O)CP(=O)(O)O)C(=O)[O-].[Na+].[Na+] [disodium PALA, L-Aspartic acid, N-(phosphonoacetyl)-, disodium salt]
water solubility (in words) (solubility; water): extremely water soluble
solubility (solubility; water, solvent-free material): > 950 mg/mL
physical state after moisture uptake (hygroscopic character): eventually take up enough moisture so as to lose their solid characteristics
hygroscopicity (in words) (hygroscopic character; disodium salt): less hygroscopic than tetrasodium PALA
hygroscopicity (in words) (hygroscopic character; listed as Disodium PALA, disodium salt): less hygroscopic than the tetrasodium compound
structural integrity by NMR [3]: retained its structural integrity
change in thin layer chromatography ([3]; believed to be an ester): formation of a new, faster-running spot
pH of aqueous solution ([4]; 2% solution in water): 4.08

SMILES: O=C(O)C[C@H](NC(=O)CP(=O)(O)O)C(=O)O [tetrasodium PALA, L-Aspartic acid, N-(phosphonoacetyl)-, tetrasodium salt]
hygroscopicity (in words) (hygroscopic character): hygroscopic; also recorded: high degree of hygroscopicity
physical state after moisture uptake (hygroscopic character): eventually take up enough moisture so as to lose their solid characteristics
rate of absorption of atmospheric moisture relative to the disodium salt (hygroscopic character; tetrasodium versus disodium salt, solvent-free material): 1.5 times faster
activity in the expected tumor systems (expected tumor systems): active in the expected tumor systems
pH when formulated in water ([4]; formulated in water): 9.2
physiological acceptability of alkalinity in water ([4]; formulated in water, pH 9.2): alkaline (pH 9.2) to a degree generally considered harmful physiologically
